The text below walks through data of PubChem BioAssay (NCI).

Some test systems named below: 786-0 renal; RXF 393 renal; IGROV1 ovarian; NCI-H522 lung; SNB-19 CNS; OVCAR-4 ovarian; MCF7 breast; NCI/ADR-RES ovarian; MDA-MB-231 breast; HCC-2998 colon.
What all share (assay): NCI-60 cell line screen, 48 h

Values joined by “and” are separate entries in the source; they are usually repeats but may differ in a detail not shown here. Equal entries are not always repeated.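 The compound was tested at five concentrations on cells cultured in 96-well plates, with a 48-hour exposure period. GI50 = concentration required for 50% inhibition of growth. Definition used: TGI = concentration required for complete inhibition of growth.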

Turning to `Cc1cc2c(F)c(Oc3ncnc(Nc4ccc(N5C[C@@H](C)N[C@@H](C)C5)cc4)c3C#N)cc(F)c2[nH]1`, the GI50 was 1.62 µM in the experiment with 786-0 renal; 0.641 µM in the experiment on RXF 393 renal; 2.48 µM in the experiment with IGROV1 ovarian; 2140 nM in the experiment with NCI-H522 lung; 5.07 µM in the experiment with SNB-19 CNS; 1.22 µM in the experiment on OVCAR-4 ovarian. Also, the GI50 was 1.7 µM in the experiment on MCF7 breast, 3.85 µM in the experiment on NCI/ADR-RES ovarian, 1.98 µM with MDA-MB-231 breast and 1.97 µM with HCC-2998 colon. Also, the TGI worked out at 3.64 µM in the experiment on 786-0 renal; 2.44 µM with RXF 393 renal; 6.91 µM in the experiment on IGROV1 ovarian; 4.54 µM in the experiment on NCI-H522 lung; 18.8 µM with SNB-19 CNS; 6.04 µM in the experiment on OVCAR-4 ovarian. The TGI is 4.29 µM in the experiment with MCF7 breast, 20.9 µM in the experiment on NCI/ADR-RES ovarian, 4.39 µM in the experiment with MDA-MB-231 breast and 4.14 µM in the experiment with HCC-2998 colon.
In the case of `COc1ccc(Br)cc1NC(=O)Nc1cccc2c1ccn2Cc1ccnc(N)c1`, the GI50 was 8.57 µM and 8.88 µM in the experiment with 786-0 renal; 4.6 µM and 9.23 µM with RXF 393 renal; 7.64 µM and 3.95 µM in the experiment on IGROV1 ovarian; 1890 nM and 2450 nM in the experiment on NCI-H522 lung; 13.6 µM and > 10 µM in the experiment with SNB-19 CNS; 3.85 µM and 5.52 µM in the experiment on OVCAR-4 ovarian. In addition, the GI50 with MCF7 breast was 3.82 µM and 5.69 µM; in the experiment with NCI/ADR-RES ovarian it was 6.08 µM and > 10 µM; in the experiment with MDA-MB-231 breast it was 3.93 µM and 3.01 µM; with HCC-2998 colon, 4.41 µM and 4.33 µM. Further, the TGI in the experiment with 786-0 renal was 27.5 µM and > 10 µM; in the experiment with RXF 393 renal, 16.1 µM and > 10 µM; with IGROV1 ovarian, 44.2 µM and > 10 µM; in the experiment with NCI-H522 lung it was 4.35 µM and > 10 µM; in the experiment with SNB-19 CNS, above 85.7 µM; in the experiment on OVCAR-4 ovarian, above 47.8 µM. Moreover, the TGI is 20.7 µM and > 10 µM in the experiment with MCF7 breast; 60.3 µM and > 10 µM with NCI/ADR-RES ovarian; 10.6 µM and > 10 µM in the experiment with MDA-MB-231 breast; 10.1 µM and > 10 µM with HCC-2998 colon.
